Structure (SMILES) | melting point
O=C(O)C(=O)CC(=O)c1cn(CCCCc2ccccc2)c2ccccc2c1=O [RDS1981, 4-[1-(4-Phenylbutyl)-1,4-dihydro-4-oxoquinolin-3-yl]-2,4-dioxobutanoic acid] | 136 to 138 °C
CCOC(=O)C(=O)CC(=O)c1cn(Cc2cccc(OC)c2)c2ccccc2c1=O | 177 to 179 °C
CCOC(=O)C(=O)CC(=O)c1cn(Cc2ccccc2)c2ccccc2c1=O [RDS1992, 4-(1-Phenylmethyl-1,4-dihydro-4-oxoquinolin-3-yl)-2,4-dioxobutanoic acid ethyl ester] | 141 to 142 °C
O=C(O)C(=O)CC(=O)c1cn(Cc2ccc(F)cc2)c2c(F)cccc2c1=O | 180 to 181 °C
O=C(O)C(=O)CC(=O)c1c[nH]c2ccccc2c1=O [RDS1680, 4-(1,4-dihydro-4-oxoquinolin-3-yl)-2,4-dioxobutanoic acid] | > 290 °C
CCOC(=O)C(=O)CC(=O)c1cn(Cc2c(F)cccc2F)c2ccccc2c1=O [RDS1983, 4-[1-(2,6-Difluorophenyl)methyl-1,4-dihydro-4-oxoquinolin-3-yl]-2,4-dioxobutanoic acid ethyl ester] | 172 to 173 °C
O=C(O)C(=O)CC(=O)c1cn(Cc2ccccc2F)c2cc(Cl)ccc2c1=O | 187 to 189 °C
CCOC(=O)C(=O)CC(=O)c1cn(Cc2ccc(F)cc2)c2ccc(F)cc2c1=O [RDS2077, 4-[1-(4-Fluorophenyl)methyl-6-fluoro-1,4-dihydro-4-oxoquinolin-3-yl]-2,4-dioxobutanoic acid ethyl ester] | 152 to 153 °C
CCOC(=O)C(=O)CC(=O)c1c[nH]c2ccccc2c1=O [RDS1675, 4-(1,4-dihydro-4-oxoquinolin-3-yl)-2,4-dioxobutanoic acid ethyl ester] | 235 to 237 °C
O=C(O)C(=O)CC(=O)c1cn(Cc2ccc3ccccc3n2)c2ccccc2c1=O [RDS2000, 4-[1-(2-Quinolinyl)methyl-1,4-dihydro-4-oxoquinolin-3-yl]-2,4-dioxobutanoic acid] | > 300 °C
O=C(O)C(=O)CC(=O)c1cn(Cc2ccccc2)c2ccccc2c1=O [RDS1993, 4-(1-Phenylmethyl-1,4-dihydro-4-oxoquinolin-3-yl)-2,4-dioxobutanoic acid] | 141 to 142 °C
CCOC(=O)C(=O)CC(=O)c1cn(Cc2ccccc2F)c2cc(Cl)ccc2c1=O | 173 to 175 °C
O=C(O)C(=O)CC(=O)c1cn(Cc2ccc(Cl)cc2)c2ccccc2c1=O [RDS2012, 4-[1-(4-Chlorophenyl)methyl-1,4-dihydro-4-oxoquinolin-3-yl]-2,4-dioxobutanoic acid] | 177 to 179 °C
CCOC(=O)C(=O)CC(=O)c1cn(Cc2ccc(F)cc2)c2cc(Cl)c(Cl)cc2c1=O | 144 to 145 °C
COc1cccc(Cn2cc(C(=O)CC(=O)C(=O)O)c(=O)c3ccccc32)c1 | 179 to 181 °C
COc1ccc(Cn2cc(C(=O)CC(=O)C(=O)O)c(=O)c3ccccc32)cc1 [RDS2035, 4-[1-(4-Methoxyphenyl)methyl-1,4-dihydro-4-oxoquinolin-3-yl]-2,4-dioxobutanoic acid] | 149 to 150 °C
CCOC(=O)C(=O)CC(=O)c1ccc2c(c1)c(=O)c(CCC(=O)O)cn2Cc1ccc(F)cc1 | 177 to 180 °C
CCOC(=O)C(=O)CC(=O)c1cn(Cc2ccc(Cl)cc2)c2ccccc2c1=O [RDS2011, 4-[1-(4-Chlorophenyl)methyl-1,4-dihydro-4-oxoquinolin-3-yl]-2,4-dioxobutanoic acid ethyl ester] | 174 to 176 °C
O=C(O)C(=O)CC(=O)c1cn(Cc2c(F)cccc2F)c2ccccc2c1=O [RDS1984, 4-[1-(2,6-Difluorophenyl)methyl-1,4-dihydro-4-oxoquinolin-3-yl]-2,4-dioxobutanoic acid] | 171 to 172 °C

Structure (SMILES) | melting point
CCOC(=O)C(=O)CC(=O)c1cn(Cc2ccc3ccccc3n2)c2ccccc2c1=O [RDS1999, 4-[1-(2-Quinolinyl)methyl-1,4-dihydro-4-oxoquinolin-3-yl]-2,4-dioxobutanoic acid ethyl ester] | 237 to 238 °C
O=C(O)C(=O)CC(=O)c1cn(Cc2ccc(F)cc2)c2cc(N3CCCC3)ccc2c1=O | 197 to 199 °C
CCOC(=O)C(=O)CC(=O)c1cn(CCCCc2ccccc2)c2ccccc2c1=O [RDS1980, 4-[1-(4-Phenylbutyl)-1,4-dihydro-4-oxoquinolin-3-yl]-2,4-dioxobutanoic acid ethyl ester] | 88 to 90 °C
O=C(O)CCc1cn(Cc2ccc(F)cc2)c2ccc(C(=O)CC(=O)C(=O)O)cc2c1=O | 184 to 187 °C
CCOC(=O)C(=O)CC(=O)c1cn(Cc2ccccc2F)c2ccccc2c1=O [RDS1989, 4-[1-(2-Fluorophenyl)methyl-1,4-dihydro-4-oxoquinolin-3-yl]-2,4-dioxobutanoic acid ethyl ester] | 152 to 153 °C
CCOC(=O)C(=O)CC(=O)c1cn(Cc2ccccc2OC)c2ccccc2c1=O | 154 to 156 °C
O=C(O)C(=O)CC(=O)c1cn(Cc2ccc(F)cc2)c2cc(F)ccc2c1=O [RDS2022, 4-[1-(4-Fluorophenyl)methyl-7-fluoro-1,4-dihydro-4-oxoquinolin-3-yl]-2,4-dioxobutanoic acid] | 162 to 163 °C
CCOC(=O)C(=O)CC(=O)c1cn(Cc2ccc3ccccc3c2)c2ccccc2c1=O [RDS1974, 4-[α-(2-Naphthyl)methyl-1,4-dihydro-4-oxoquinolin-3-yl]-2,4-dioxobutanoic acid ethyl ester] | 153 to 154 °C
O=C(O)C(=O)CC(=O)c1cn(Cc2ccc(O)cc2)c2ccccc2c1=O | 206 to 208 °C
CCOC(=O)C(=O)CC(=O)c1cn(Cc2ccc(OC)cc2)c2ccccc2c1=O [RDS2034, 4-[1-(4-Methoxyphenyl)methyl-1,4-dihydro-4-oxoquinolin-3-yl]-2,4-dioxobutanoic acid ethyl ester] | 154 to 156 °C
O=C(O)C(=O)CC(=O)c1cn(Cc2ccccc2F)c2ccccc2c1=O [RDS1990, 4-[1-(2-Fluorophenyl)methyl-1,4-dihydro-4-oxoquinolin-3-yl]-2,4-dioxobutanoic acid] | 172 to 174 °C
COc1ccccc1Cn1cc(C(=O)CC(=O)C(=O)O)c(=O)c2ccccc21 | 173 to 175 °C
O=C(O)C(=O)CC(=O)c1cn(Cc2cccc(F)c2)c2ccccc2c1=O [RDS1987, 4-[1-(3-Fluorophenyl)methyl-1,4-dihydro-4-oxoquinolin-3-yl]-2,4-dioxobutanoic acid] | 158 to 159 °C
CCOC(=O)C(=O)CC(=O)c1cn(Cc2ccc(F)cc2)c2cc(F)ccc2c1=O [RDS2021, 4-[1-(4-Fluorophenyl)methyl-7-fluoro-1,4-dihydro-4-oxoquinolin-3-yl]-2,4-dioxobutanoic acid ethyl ester] | 151 to 152 °C
CCOC(=O)C(=O)CC(=O)c1cn(Cc2ccc(F)cc2)c2c(F)cccc2c1=O | 179 to 180 °C
CCOC(=O)C(=O)CC(=O)c1cn(Cc2ccc(O)cc2)c2ccccc2c1=O | 179 to 181 °C
O=C(O)C(=O)CC(=O)c1cn(Cc2ccc(F)cc2)c2c(Cl)cccc2c1=O | 175 to 177 °C
O=C(O)C(=O)CC(=O)c1cn(Cc2ccc(F)cc2)c2ccc(F)cc2c1=O [RDS2078, 4-[1-(4-Fluorophenyl)methyl-6-fluoro-1,4-dihydro-4-oxoquinolin-3-yl]-2,4-dioxobutanoic acid] | 183 to 184 °C

Source: US7776883B2, “Quinolin-4-ones as inhibitors of retroviral integrase for the treatment of HIV, AIDS and AIDS related complex (ARC)” (The United States of America as represented by the …, priority 2004, dated 2010)
